Results: paper PMC6349357, “Computational and experimental analysis of bioactive peptide linear motifs in the integrin adhesome” (PLoS ONE, 2019)

Legend:
TRAP-activated platelets = assay: Inhibition of TRAP-induced platelet aggregation after pre-incubation with peptide; assay type: cell-based, human (healthy volunteers); details: for Aggregation after TRAP activation, donor a: replicate donor a; for Aggregation after TRAP activation, donor b: replicate donor b; for Aggregation after TRAP activation, donor c: replicate donor c; for Aggregation after TRAP activation, donor d: replicate donor d; for Aggregation after TRAP activation, donor e: replicate donor e; for Summary of effects of SDC4-derived palmitylated peptides and scrambled controls, 20μM: S2 Table B / S2 Fig, activation of resting platelets and inhibition of aggregation induced by 4 μM TRAP, in words; for Inhibition, donor 20_08_13: replicate 20_08_13; for Inhibition, donor 14_06_13: replicate 14_06_13; for Inhibition, donor 18_06_13: replicate 18_06_13; for Inhibition, donor 20_06_13: replicate 20_06_13
Experimental: (§1) Blood was drawn from healthy volunteers into a syringe containing a final volume of 15% Acid Citrate Dextrose (ACD). The blood/ACD mixture was then aliquoted into 15 ml Cellstar tubes, at volumes of 5ml per tube, and centrifuged at 150 rcf for 10 minutes to obtain platelet rich plasma (PRP). PRP was then transferred to a 50ml tube using a pipette. The pH was then adjusted to 6.5. Prostaglandin (PGE1) was then added with a final concentration of 1μM. The PRP was then centrifuged at 750 rcf. After centrifugation the platelet poor plasma (PPP) was discarded and the pellet was resuspended in buffer A (6 mM dextrose, 130 mM NaCl, 9 mM NaHCO3, 10 mM sodium citrate, 10 mM Tris base, 3 mM KCl, 0.81 mM KH2PO4 and 0.9 mM MgCl26H2O, pH 7.4). A platelet concentration of 3x10^5/μl or 1x10^6/μl was obtained by dilution depending on the experiment in which they were used. Platelets were left to rest for 45 minutes and supplemented with 1.8mM calcium chloride prior to use.
(§2) A platelet concentration of 3x10^5 /μl was used when performing standard aggregations and a concentration of 1x10^6 /μl was used for sample preparation for western blot analysis. The extent of platelet aggregation was measured by quantifying the optical density of the samples using the Bio-Data PAP-8 aggregometer (platelet aggregation profiler, Horsham, PA, USA). A temperature of 37°C was maintained and samples were stirred using magnets spinning at 1100 rpm. 200 μl of washed platelets was added to each aggregation tube. Different volumes of buffer, peptide and TRAP were added to achieve the desired concentrations. Peptide/buffer was added to each well after two minutes. TRAP, with a final concentration depending on the experiment, was added 6 minutes later and data was collected for an additional 7 minutes.

resting platelets = assay: Platelet aggregation induced by peptide in resting washed platelets (activation); assay type: cell-based, human (healthy volunteers); details: for Activation: platelet aggregation in resting platelets after 6 minutes incubation with peptide, pal-peptides 20 μM, tat-peptides 50 μM, optical density, aggregometer, mean, n>=3; for Aggregation before TRAP activation, donor a: replicate donor a; for Aggregation before TRAP activation, donor b: replicate donor b; for Aggregation before TRAP activation, donor c: replicate donor c; for Aggregation before TRAP activation, donor d: replicate donor d; for Aggregation before TRAP activation, donor e: replicate donor e; for Activation, donor 20 08 13: replicate 20_08_13; for Activation, donor 20 08 13 / Activation, donor 22_08_13_DONOR1 / Activation, donor 22_08_13_DONOR2 / Activation, donor 14 06 13 / Activation, donor 18_06_13 / Activation, donor 20_06_13: SDC4 peptides and controls, 20 μM; for Activation, donor 22_08_13_DONOR1: replicate 22_08_13_DONOR1; for Activation, donor 22_08_13_DONOR2: replicate 22_08_13_DONOR2; for Activation, donor 14 06 13: replicate 14_06_13; for Activation, donor 18_06_13: replicate 18_06_13; for Activation, donor 18_06_13 / Activation, donor 20_06_13: in % (unit assumed); for Activation, donor 20_06_13: replicate 20_06_13
Experimental: as §1, §2

[1] = platelet aggregation induced by 4 μM TRAP in platelets pre-incubated with peptide (low value = inhibition), pal-peptides 20 μM, tat-peptides 50 μM, mean, n>=3
[2] = TRAP 4 μM, pal 20 μM, tat 50 μM
[3] = replicate 22_08_13_DONOR1, peptide 20 μM, TRAP 4 μM
[4] = replicate 22_08_13_DONOR2, peptide 20 μM, TRAP 4 μM

Row | Substance | Platelet aggregation remaining after TRAP (low = inhibition) (TRAP-activated platelets; [1]) | Aggregation after TRAP activation, donor a (TRAP-activated platelets; [2]) | Aggregation after TRAP activation, donor b (TRAP-activated platelets; [2]) | Aggregation after TRAP activation, donor c (TRAP-activated platelets; [2]) | Aggregation after TRAP activation, donor d (TRAP-activated platelets; [2]) | Aggregation after TRAP activation, donor e (TRAP-activated platelets; [2]) | Activation (resting platelets; unit assumed) [%] | Aggregation before TRAP activation, donor a (resting platelets; pal 20 μM, tat 50 μM) | Aggregation before TRAP activation, donor b (resting platelets; pal 20 μM, tat 50 μM) | Aggregation before TRAP activation, donor c (resting platelets; pal 20 μM, tat 50 μM) | Aggregation before TRAP activation, donor d (resting platelets; pal 20 μM, tat 50 μM) | Aggregation before TRAP activation, donor e (resting platelets; pal 20 μM, tat 50 μM) | Summary of effects of SDC4-derived palmitylated peptides and scrambled controls, 20μM (TRAP-activated platelets) | Inhibition, donor 20_08_13 (TRAP-activated platelets; peptide 20 μM, TRAP 4 μM) | Platelet aggregation remaining after TRAP (low = inhibition) (TRAP-activated platelets; [3]) | Platelet aggregation remaining after TRAP (low = inhibition) (TRAP-activated platelets; [4]) | Activation, donor 20 08 13 (resting platelets; unit assumed) [%] | Activation, donor 22_08_13_DONOR1 (resting platelets) | Activation, donor 22_08_13_DONOR2 (resting platelets) | Inhibition, donor 14_06_13 (TRAP-activated platelets; peptide 20 μM, TRAP 4 μM) | other results
1 | NSDTPPRPDRLPL-tat [PTPN12-tat, PTPN12 peptide with C-terminal tat] | 75 | 73 | 76 | 76 | 75 | 78 | 3 | 3 | 4 | 4 | 4 | 3 | – | – | – | – | – | – | – | – | –
2 | MGYRKEDKDKS [pal-SDC4_JM Control 2, scrambled control of pal-SDC4_JM, reference compound] | – | – | – | – | – | – | – | – | – | – | – | – | Inhibitor | 4 | 3 | 14 | 2 | 1 | 2 | – | –
3 | YKDSMERDKGK [pal-SDC4_JM Control 1, scrambled control of pal-SDC4_JM, reference compound] | – | – | – | – | – | – | – | – | – | – | – | – | Activator | 71 | 68 | 70 | 70 | 71 | 65 | 76 | Inhibition, donor 18_06_13 (TRAP-activated platelets; peptide 20 μM, TRAP 4 μM): 72; Inhibition, donor 20_06_13 (TRAP-activated platelets; peptide 20 μM, TRAP 4 μM): 71; Effects on activation of aggregation at 1, 5 and 20 μM (resting platelets; S2 Fig A legend, three doses 1, 5, 20 μM): activatory effects; Activation, donor 14 06 13 (resting platelets; unit assumed): 69%; Activation, donor 18_06_13 (resting platelets): 68; Activation, donor 20_06_13 (resting platelets): 66
4 | Pal-KKAPTNEFYA [Pal-KK-SDC4-tail, palmitylated, slightly extended SDC4 tail peptide …] | – | – | – | – | – | – | – | – | – | – | – | – | Inhibitor | 4 | 2 | 12 | 3 | 1 | 1 | 65 | Platelet aggregation remaining after TRAP (low = inhibition) (TRAP-activated platelets; S3 Table, peptide 5 μM, aggregation after TRAP, n=3): 63; Platelet aggregation remaining after TRAP (low = inhibition) (TRAP-activated platelets; S3 Table, peptide 20 μM, aggregation after TRAP, n=3): 36; Aggregation after TRAP, peptide alone 1x (A 1x / B 1x) (TRAP-activated platelets; TRAP 2 μM after 6 minutes pre-incubation, 4 μM pal-peptides, 10 μM tat-peptides, mean n = 3): 64.67; Aggregation after TRAP, peptide alone 2x (A 2x / B 2x) (TRAP-activated platelets; TRAP 2 μM after 6 minutes pre-incubation, double concentration of 4 μM (pal) / 10 μM (tat), mean n = 3): 3; Inhibition, donor 18_06_13 (TRAP-activated platelets; peptide 20 μM, TRAP 4 μM): 64; Inhibition, donor 20_06_13 (TRAP-activated platelets; peptide 20 μM, TRAP 4 μM): 71; Activation, 5μM (resting platelets; S3 Table, peptide 5 μM, n=3, unit assumed): 2%; Activation, 20μM (resting platelets; S3 Table, peptide 20 μM, n=3, unit assumed): 1%; Activation, donor 14 06 13 (resting platelets; unit assumed): 2%; Activation, donor 18_06_13 (resting platelets): -1; Activation, donor 20_06_13 (resting platelets): 2
5 | tat-GRDKYKTLRQIRQGNTKQRIDEFESM [tat-MSN, tat peptide from MSN] | 73 | – | – | – | – | – | 3 | – | – | – | – | – | – | – | – | – | – | – | – | – | Aggregation after TRAP activation, donor h (TRAP-activated platelets; replicate donor h, TRAP 4 μM, pal 20 μM, tat 50 μM): 76; Aggregation after TRAP activation, donor i (TRAP-activated platelets; replicate donor i, TRAP 4 μM, pal 20 μM, tat 50 μM): 68; Aggregation after TRAP activation, donor j (TRAP-activated platelets; replicate donor j, TRAP 4 μM, pal 20 μM, tat 50 μM): 75; Aggregation before TRAP activation, donor h (resting platelets; replicate donor h, pal 20 μM, tat 50 μM): 3; Aggregation before TRAP activation, donor i (resting platelets; replicate donor i, pal 20 μM, tat 50 μM): 3; Aggregation before TRAP activation, donor j (resting platelets; replicate donor j, pal 20 μM, tat 50 μM): 4
6 | KLSQLTSLLSSIE-tat [INPP5D-tat, INPP5D peptide with C-terminal tat] | 74 | 70 | 77 | 76 | 75 | 73 | 4 | 4 | 8 | 2 | 3 | 4 | – | – | – | – | – | – | – | – | –
